Experimental data as given in publication PMC6792352, “Limited Chemical Structural Diversity Found to Modulate Thyroid Hormone Receptor in the Tox21 Chemical Library” (Environmental Health Perspectives, 2019).
Structures can show the parent of a compound that is named as a salt.

Experiment: in vitro
Conditions: rat, gh3-tre-luc cells

Row | Structure (SMILES) | CC50 at 24 h (AC50 (uM) modified / 1000) | also measured
1 | CCOCN(C(=O)CCl)c1c(C)cccc1CC [Acetochlor] | > 90 µM | 
2 | CC(=O)c1ccc(S(=O)(=O)NC(=O)NC2CCCCC2)cc1 [Acetohexamide] | > 90 µM | 
3 | CC(=O)NO [Acetohydroxamic acid] | > 50 µM | 
4 | CC(=O)C(C)O (stereo not shown) [Acetoin] | > 90 µM | 
5 | CC(=O)Oc1cc(C)c(OC(C)=O)c2ccccc12 [Acetomenaphthone] | 19.7 µM | 
6 | CC(C)=O [Acetone] | > 90 µM | 
7 | CC#N [Acetonitrile] | > 90 µM | 
8 | CC(=O)c1ccc2c(c1)N(CCCN1CCN(CCO)CC1)c1ccccc1S2 [Acetophenazine dimaleate] | 16.5 µM | 
9 | CC(=O)c1ccccc1 [Acetophenone] | > 90 µM | 
10 | CC(=O)c1ccc2c(c1)N(CCCN(C)C)c1ccccc1S2 [Acetopromazine maleate] | 9.14 µM | 
11 | CC(=O)Nc1c(I)cc(I)c(C(=O)O)c1I [Acetrizoic acid] | > 50 µM | 
12 | CC(=O)C1=C(C)[C@@H]2C[C@@]3(C1)[C@H](C)CC[C@H]3C2(C)C [Acetyl cedrene] | 56.9 µM | 
13 | CCCCOC(=O)CC(CC(=O)OCCCC)(OC(C)=O)C(=O)OCCCC [Acetyl tributyl citrate] | > 90 µM | 
14 | CC(=O)O[C@H](CC(=O)[O-])C[N+](C)(C)C [Acetyl-L-carnitine hydrochloride] | > 90 µM | 
15 | CC(=O)N[C@@H](CC(C)C)C(=O)O [Acetyl-L-leucine] | > 50 µM | 
16 | CC(=O)OCC[N+](C)(C)C [Acetylcholine chloride] | > 50 µM | 
17 | CCC(C(=O)NC(=O)NC(C)=O)c1ccccc1 (stereo not shown) [Acetylpheneturide] | > 50 µM | 
18 | CC(=O)c1cnccn1 [Acetylpyrazine] | > 100 µM | 
19 | CC(=O)Oc1ccccc1C(N)=O [Acetylsalicylamide] | > 50 µM | 
20 | CCOC(=O)CC(CC(=O)OCC)(OC(C)=O)C(=O)OCC [Acetyltriethyl citrate] | > 90 µM | 
21 | CC(=O)NCCCCCC(=O)O [Acexamic acid] | > 50 µM | 
22 | CSC(=O)c1cccc2nnsc12 [Acibenzolar-S-methyl] | > 90 µM | 
23 | COc1ccc(N=Nc2cc(C)c(N=Nc3ccc(S(=O)(=O)O)cc3)cc2OC)cc1 [Acid Orange 156] | 64.4 µM | 
24 | Nc1ccc2cc(S(=O)(=O)O)cc(O)c2c1N=Nc1ccccc1C(F)(F)F [Acid Red 337] | 89.3 µM | 
25 | CC1=NN(c2ccc(S(=O)(=O)O)cc2)C(=O)C1N=Nc1ccccc1 (stereo not shown) [Acid Yellow 11] | 69.4 µM | 
26 | CN(C)c1ccc(C(=C2C=CC(=[N+](C)C)C=C2)c2c(O)c(S(=O)(=O)[O-])cc3cc(S(=O)(=O)O)ccc23)cc1 [Acid green 50] | 30.6 µM | 
27 | O=C(O)c1cc(Oc2ccc(C(F)(F)F)cc2Cl)ccc1[N+](=O)[O-] [Acifluorfen-sodium] | > 90 µM | 

Row | Structure (SMILES) | CC50 at 24 h (AC50 (uM) modified / 1000) | also measured
28 | CC1(c2ccccc2)OC(C(=O)O)=CC1=O (stereo not shown) [Acifran] | > 50 µM | 
29 | Cc1cnc(C(=O)O)c[n+]1[O-] [Acipimox] | > 50 µM | 
30 | O=C(O)C(=O)Nc1cccc(-c2nnn[nH]2)c1 [Acitazanolast] | > 50 µM | 
31 | COc1cc(C)c(/C=C/C(C)=C/C=C/C(C)=C/C(=O)O)c(C)c1C [Acitretin] | > 50 µM | 
32 | N[C@H](C(=O)O)[C@@H]1CC(Cl)=NO1 [Acivicin] | 3.86 µM | 
33 | CC[C@@]1(O)C[C@H](O[C@H]2C[C@H](N(C)C)[C@H](O[C@H]3C[C@H](O)[C@H](O[C@H]4CCC(=O)[C@H](C)O4)[C@H](C)O3)[C@H](C)O2)c2c(cc3c(c2O)C(=O)c2c(O)cccc2C3=O)[C@H]1C(=O)OC [Aclarubicin hydrochloride] | 0.114 µM | 
34 | O=C(O)COc1ccccc1/C=N/NC(=O)c1ccncc1 [Aconiazide] | > 50 µM | 
35 | CCN1C[C@]2(COC)[C@H](O)C[C@H](OC)[C@]34C1[C@H]([C@H](OC)[C@H]23)[C@]1(OC(C)=O)[C@H]2[C@@H](OC(=O)c3ccccc3)[C@](O)(C[C@H]24)[C@@H](OC)[C@@H]1O [Aconitine] | > 50 µM | 
36 | CC(=O)OCC(=O)Nc1cc(C#N)cc(NC(=O)COC(C)=O)c1Cl [Acreozast] | > 50 µM | 
37 | C=CC(OCC)OCC [Acrolein diethylacetal] | > 90 µM | 
38 | C=CC=O [Acrolein] |  | CC50 at 24 h (AC50 (uM) modified / 1000, Tox21_110001=Tox21_200984, viability, 1 nM T3 present, 24 h): > 90 µM
39 | C=CC(N)=O [Acrylamide] | > 90 µM | 
40 | C=CC(=O)O [Acrylic acid] | > 50 µM | 
41 | C=CC#N [Acrylonitrile] |  | CC50 at 24 h (AC50 (uM) modified / 1000, Tox21_110001=Tox21_202076, viability, 1 nM T3 present, 24 h): > 100 µM; CC50 at 24 h (AC50 (uM) modified / 1000, Tox21_110001=Tox21_302951, viability, 1 nM T3 present, 24 h): > 90 µM
42 | CCOc1ccc(S(=O)(=O)O)c2cccnc12 [Actinoquinol] | > 50 µM | 
43 | Nc1nc2c(ncn2COCCO)c(=O)[nH]1 [Acyclovir] | > 20 µM | 
44 | O=C(COc1ccc(Cl)cc1)OCCNC12CC3CC(CC(C3)C1)C2 [Adafenoxate] | > 50 µM | 
45 | COc1ccc(-c2ccc3cc(C(=O)O)ccc3c2)cc1[C@]12C[C@H]3C[C@H](C[C@H](C3)C1)C2 [Adapalene] | 1.88 µM | 
46 | CC(C)(C)C(=O)OCOP(=O)(COCCn1cnc2c(N)ncnc21)OCOC(=O)C(C)(C)C [Adefovir dipivoxil] | > 50 µM | 
47 | Nc1ncnc2c1ncn2CCOCP(=O)(O)O [Adefovir] | > 50 µM | 
48 | Nc1ncnc2nc[nH]c12 [Adenine] | > 90 µM | 
49 | Nc1ncnc2c1ncn2[C@@H]1O[C@H](COP(=O)(O)O)[C@@H](O)[C@H]1O [Adenosine 5'-phosphate] | > 50 µM | 
50 | Nc1ncnc2c1ncn2[C@@H]1O[C@H](COP(=O)(O)OP(=O)(O)OP(=O)(O)O)[C@@H](O)[C@H]1O [Adenosine triphosphate] | > 50 µM | 
51 | Nc1ncnc2c1ncn2[C@@H]1O[C@H](CO)[C@@H](O)[C@H]1O [Adenosine] | > 50 µM | 
52 | O=S(O)CNc1ccc(S(=O)(=O)c2ccc(NCS(=O)O)cc2)cc1 [Adesulfone sodium] | > 50 µM | 
53 | NC(=O)CCCCC(N)=O [Adipamide] | > 90 µM | 
54 | CCN(CC)CCOC(=O)C(c1ccccc1)c1ccccc1 [Adiphenine hydrochloride] | 43.3 µM | 

Row | Structure (SMILES) | CC50 at 24 h (AC50 (uM) modified / 1000) | also measured
55 | O=C(C[S+]([O-])C(c1ccccc1)c1ccccc1)NO (stereo not shown) [Adrafinil] |  | CC50 at 24 h (AC50 (uM) modified / 1000, Tox21_110001=Tox21_112258, viability, 1 nM T3 present, 24 h): > 50 µM
56 | CNCC(=O)c1ccc(O)c(O)c1 [Adrenone] | > 50 µM | 
57 | CC(=O)NC(Cc1ccccc1)C(=O)O (stereo not shown) [Afalanine] | > 50 µM | 
58 | Cc1ccccc1-n1c(CF)nc2ccc(N)cc2c1=O [Afloqualone] |  | CC50 at 24 h (AC50 (uM) modified / 1000, Tox21_110001=Tox21_112447, viability, 1 nM T3 present, 24 h): > 50 µM
59 | CCCCCCCCCCCCCCCCC(C(=O)O)C(O)(CC(=O)O)C(=O)O (stereo not shown) [Agaric acid] | 29.5 µM | 
60 | CC[C@H]1[C@@H]2C[C@H]3[C@@H]4N(C)c5ccccc5[C@]45C[C@@H]([C@H]2[C@H]5O)N3[C@@H]1O [Ajmaline] | > 20 µM | 
61 | CC(=O)SC[C@@H](C)C(=O)N1CCC[C@H]1C(=O)N[C@@H](Cc1ccccc1)C(=O)O [Alacepril] | > 50 µM | 
62 | C[C@H](N)C(=O)N[C@@H](C)P(=O)(O)O [Alafosfalin] | > 50 µM | 
63 | CC(N)C(=O)OC(C)(C)Cc1ccc(Cl)cc1 (stereo not shown) [Alaproclate] | 25.5 µM | 
64 | CC(C)(C)NCC(O)c1ccc(O)c(CO)c1 (stereo not shown) [Albuterol] | > 90 µM | 
65 | C=CCN1C(=O)C(CC(C)C)NC1=S (stereo not shown) [Albutoin] | > 50 µM | 
66 | C=CCOc1ccc(CC(=O)O)cc1Cl [Alclofenac] | > 50 µM | 
67 | CCC(=O)OCC(=O)[C@@]1(OC(=O)CC)[C@H](C)C[C@H]2[C@H]3[C@H]([C@@H](O)C[C@@]21C)[C@@]1(C)C=CC(=O)C=C1C[C@H]3Cl [Alclometasone dipropionate] | > 20 µM | 
68 | C=CC[N@@+]12CC[C@@]34c5ccccc5N5/C=C6/[C@H]7C[C@H]8[C@@]9(CC[N@@+]8(CC=C)C/C7=C/CO)c7ccccc7N(/C=C(/[C@@H](C[C@@H]31)/C(=C\CO)C2)[C@H]54)[C@@H]69 [Alcuronium chloride] | > 20 µM | 
69 | CSC(C)(C)/C=N/O [Aldicarb oxime] | > 90 µM | 
70 | CNC(=O)ON=CC(C)(C)[S+](C)[O-] (stereo not shown) [Aldicarb sulfoxide] | > 90 µM | 
71 | CNC(=O)O/N=C/C(C)(C)SC [Aldicarb] | > 90 µM | 
72 | CNC(=O)ON=CC(C)(C)S(C)(=O)=O [Aldoxycarb] |  | CC50 at 24 h (AC50 (uM) modified / 1000, Tox21_110001=Tox21_201338, viability, 1 nM T3 present, 24 h): > 90 µM
73 | ClC1=C(Cl)[C@]2(Cl)[C@H]3[C@H]([C@@H]4C=C[C@H]3C4)[C@@]1(Cl)C2(Cl)Cl [Aldrin] |  | CC50 at 24 h (AC50 (uM) modified / 1000, Tox21_110001=Tox21_202072, viability, 1 nM T3 present, 24 h): 51.6 µM; CC50 at 24 h (AC50 (uM) modified / 1000, Tox21_110001=Tox21_300172, viability, 1 nM T3 present, 24 h): 46.1 µM
74 | CCCCC(CC)CNC(=N)NC(=N)NCCCCCCNC(=N)NC(=N)NCC(CC)CCCC (stereo not shown) [Alexidine dihydrochloride] | 7.36 µM | 
75 | C=C1/C(=C\C=C2/CCC[C@]3(C)[C@@H]([C@H](C)CCCC(C)C)CC[C@@H]23)C[C@@H](O)C[C@@H]1O [Alfacalcidol] | 14.8 µM | 
76 | CC(=O)OCC(=O)[C@H]1CC[C@H]2[C@@H]3CC[C@H]4C[C@H](O)CC[C@]4(C)[C@H]3C(=O)C[C@]12C [Alfadolone acetate] | > 20 µM | 
77 | COc1cc2nc(N(C)CCCNC(=O)C3CCCO3)nc(N)c2cc1OC (stereo not shown) [Alfuzosin hydrochloride] | > 20 µM | 
78 | C=CCc1cc(OC)c(O)c(C(=O)NCCO)c1 [Alibendol] | > 50 µM | 
79 | Cc1ccccc1C(=O)N1CC/C(=N\OS(=O)(=O)O)c2ccc(Cl)cc21 [Alilusem potassium] | > 50 µM | 
80 | C=CCN(C1=NCCN1)c1c(Cl)cccc1Cl [Alinidine] | > 50 µM | 
